# Laboratory results as given in patent US11572402B2, “Method for promoting diversification of antibody variable region” (Chiome Bioscience Inc., priority 2017, dated 2023).
# Entries after “also recorded” stand apart in the source; their conditions may differ.
# Tested on: hVEGF-A-#33 cell line
# Assay: Screening for diversification-promoting compounds by FCM (hIgG+_hVEGF-A− population)
# Format: cell-based, chicken
# Conditions: hVEGF-A-#33 cells expressing human IgG, versus negative control CS(−)
# Experimental: Frozen stocks of the hVEGF-A #33 cell line and the hVEGF-A #44 cell line (3.0×10^6 cells) were each awaken with a CS(-) medium, using a 25 cm^2 Flask (Corning, 430639), and were then cultured in a CO2 incubator (SANYO CO2 Incubator MCO-20AIC, 39.5° C., 5% CO2). On the following day, the cells were seeded on a 6-well dish (Nunc, 140675) to a cell density of 1.0×10^4 cells/mL (wherein the cell concentration and the survival rate were measured using CASY cell counter (Nepa Gene)). The cells were cultured in a CS(+) medium, in the presence or absence of a PI3Kα inhibitor ([…]: 10 μM, PI3Kα Inhibitor 2: 500 nM). Moreover, after the cells had been cultured for 2 days, individual samples were subcultured under the same conditions to result in a cell density of 1.0×10^4 cells/mL. Further, after completion of the culture for 3 days, individual samples were subcultured under the same conditions to result in a cell density of 6.0×10^4 cells/mL, and the culture was continued. After completion of the culture for 2 days (Day 7 of the culture), individual samples were centrifuged to remove a supernatant, and the residue was then suspended in a CS(+) medium supplemented with 1 μM FK-506 (hereinafter referred to as a “CS/FK medium”). The suspension was centrifuged again to remove a supernatant. This washing step was carried out repeatedly twice, and individual samples were then suspended in a CS/FK medium supplemented with AF647-labeled hVEGF-A (10 nM) and 2,000-fold diluted Goat Anti-Human IgG-PE. The light was shielded, and the obtained suspension was then reacted at 4° C. for 30 min. After completion of the staining, the reaction mixture was washed with a CS/FK medium twice, and each sample was then suspended in the CS/FK medium. Thereafter, using FACS Aria Fusion (BD), FCM and single cell sorting was carried out. Dead cells were removed using FSC-SSC plot. A plot, in which the vertical axis indicated AF647 (AF647-labeled hVEGF-A) and the longitudinal axis indicated PE (Goat Anti-Human IgG-PE), was developed, and the percentage of PE+(hIgG+)/AF647-(hVEGF-A-) cells was then calculated. In order to make a comparison regarding the number of cells with improved antigen-binding ability according to Affinity Maturation under individual conditions, Affinity Maturation Gate was established according to the following criteria. First, the plot was converted to a contour plot in FCM analysis, and a trapezoid gate having an inclination that was in parallel with the contour of a population in which the most cells were gathered (hereinafter referred to as a “main population”) was established. […] At that time, the vertex of the trapezoid gate was set to be overlapped with the mean value MFI of the main population, and then, a cell population having low antigen-binding ability and a cell population having a low expression level of antibody were set not to enter the gate. The percentage of clones with improved antigen-binding ability was calculated by counting the number of cells existing in this Affinity Maturation Gate and then dividing the obtained value by the total number of the analyzed cells. […]
structure (smiles),measurement,value
Cc1nc(NC(=O)N2CCC[C@H]2C(N)=O)sc1-c1csc(C(C)(C)C)n1 [A66],percentage of hIgG+_hVEGF-A− cell population (diversification-promoting effect),increased in comparison to the negative control (CS(−)); also recorded: highest diversification-promoting effects
